Data on 14 molecules can be found in US7488751B2, “Antidepressant cycloalkylamine derivatives of 2,3-dihydro-1,4-benzodioxan” (Wyeth, priority 2002, dated 2009).

In assay [1] the target is T1, serotonin transporter (Rattus norvegicus, UniProt P31652).
T1 construct: displace ^3H-paroxetine from male rat frontal cortical membranes; from tissue; host or cells: male rat frontal cortex membranes
Put plainly: 3H-paroxetine displacement, affinity for the serotonin transporter. Particulars: displacement of 3H-paroxetine from male rat frontal cortical membranes; read-out: 5-HT Transporter Affinity Ki. The assay is classed as binding.

Assay [2] has as its target T2, cloned human 5-HT1A receptors (Homo sapiens, UniProt P08908).
T2 construct: expressed in transfected cells
T2 sequence (P08908 1-422): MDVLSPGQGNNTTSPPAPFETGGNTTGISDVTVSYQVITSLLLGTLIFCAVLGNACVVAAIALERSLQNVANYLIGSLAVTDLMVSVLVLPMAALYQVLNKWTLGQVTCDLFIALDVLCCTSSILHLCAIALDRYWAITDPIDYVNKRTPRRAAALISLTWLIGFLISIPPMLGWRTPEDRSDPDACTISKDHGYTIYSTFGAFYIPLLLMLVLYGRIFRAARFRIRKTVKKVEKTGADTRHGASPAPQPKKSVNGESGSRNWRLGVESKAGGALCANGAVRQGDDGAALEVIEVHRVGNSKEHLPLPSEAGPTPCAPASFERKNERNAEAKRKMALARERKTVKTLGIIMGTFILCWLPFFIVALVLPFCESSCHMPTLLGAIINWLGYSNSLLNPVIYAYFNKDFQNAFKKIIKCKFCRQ
Put plainly: 35S-GTPγS binding assay, 5-HT1A function. It is filed as biochemical. As to conditions: for IC50: antagonist potency, reversal of effects of standard agonist 8-OHDPAT on 35S-GTPγS binding; for 5-HT1A Function (Imax): maximum inhibitory effect, 35S-GTPγS binding, reversal of 8-OHDPAT, unit assumed. On the procedure:
Antagonist activity at 5-HT1A receptors was established by using a ^35S-GTPγS binding assay similar to that used by Lazareno and Birdsall (Br. J. Pharmacol. 109: 1120, 1993), in which the test compound's ability to affect the binding of ^35S-GTPγS to membranes containing cloned human 5-HT1A receptors was determined. Agonists produce an increase in binding whereas antagonists produce no increase but rather reverse the effects of the standard agonist 8-OHDPAT. The test compound's maximum inhibitory effect is represented as the Imax, while its potency is defined by the IC50.

Assay [3] has as its target T3, human 5-HT1A receptors (Homo sapiens, UniProt P08908).
T3 construct: expressed in transfected cells; host or cells: CHO cells (stably transfected)
T3 sequence (P08908 1-422): T2 sequence (P08908 1-422)
Put plainly: [3H] 8-OHDPAT displacement from the 5-HT1A serotonin receptor (transfected CHO cells). It is filed as binding. As to conditions: displacement of [3H] 8-OHDPAT; CHO cells stably transfected with human 5-HT1A receptors; read-out: 5-HT1A Receptor Affinity Ki. From the text: High affinity for the serotonin 5-HT1A receptor was established by testing the claimed compound's ability to displace [^3H] 8-OHDPAT (dipropylaminotetralin) from the 5-HT1A serotonin receptor following a modification of the procedure of Hall et al., J. Neurochem. 44, 1685 (1985) which utilizes CHO cells stably transfected with human 5-HT1A receptors.
A general note: In a radioligand displacement assay an active substance lowers the binding of a labelled ligand.

The target of assay [4] is T2, cloned human 5-HT1A receptors. Briefly: 35S-GTPγS binding assay, 5-HT1A function. It is filed as biochemical. (In general: GTPγS resists hydrolysis and so accumulates on activated G proteins.)

T1 sequence (P31652 whole entry): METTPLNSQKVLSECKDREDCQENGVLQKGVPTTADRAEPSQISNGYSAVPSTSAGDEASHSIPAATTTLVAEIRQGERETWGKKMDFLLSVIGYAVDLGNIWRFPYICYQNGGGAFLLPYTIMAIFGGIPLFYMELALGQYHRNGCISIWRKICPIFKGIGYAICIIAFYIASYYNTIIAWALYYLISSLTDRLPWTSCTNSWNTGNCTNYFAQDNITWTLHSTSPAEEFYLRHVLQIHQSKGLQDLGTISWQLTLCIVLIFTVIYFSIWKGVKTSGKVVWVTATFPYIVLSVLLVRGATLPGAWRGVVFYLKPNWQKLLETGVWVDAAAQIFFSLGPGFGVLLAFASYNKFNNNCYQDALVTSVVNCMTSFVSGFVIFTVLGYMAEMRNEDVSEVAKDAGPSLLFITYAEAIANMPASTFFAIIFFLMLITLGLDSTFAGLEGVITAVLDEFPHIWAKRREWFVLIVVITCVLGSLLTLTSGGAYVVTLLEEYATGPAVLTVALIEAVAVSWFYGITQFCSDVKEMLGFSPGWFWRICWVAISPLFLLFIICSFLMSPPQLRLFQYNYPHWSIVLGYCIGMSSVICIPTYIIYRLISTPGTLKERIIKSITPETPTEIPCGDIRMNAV

Regarding `COc1cccc2c1O[C@@H](CN[C@H]1CC[C@H](c3c[nH]c4ccc(F)cc34)C1)CO2` (mixture of isomers) [Example 2, N-[(trans)-3-(5-fluoro-1H-indol-3-yl)cyclopentyl]-N-{[(2S)-8-methoxy-2,3 dihydro-1,4-benzodioxin-2-yl]methyl}amine], the Ki in assay [1] stood at 0.6 nM. Moreover, in assay [2], the IC50 turned out to be 7 nM and the 5-HT1A Function (Imax) worked out at 99%. Besides, the Ki in assay [3] was 14.5 nM.

For `COc1cccc2c1O[C@@H](CN[C@H]1CC[C@@H](c3cn(C)c4ccc(F)cc34)C1)CO2` (mixture of isomers) [Example 3, N-[(cis)-3-(5-fluoro-1-methyl-1H-indol-3-yl)cyclopentyl]-N-{[(2S)-8-methoxy-2,3-dihydro-1,4-benzodioxin-2-yl]methyl}amine], the Ki in assay [1] turned out to be 12 nM. In assay [2], the IC50 amounted to 152 nM and the 5-HT1A Function (Imax) was 64%. Further, the Ki in assay [3] amounted to 10.8 nM.

For the molecule `COc1cccc2c1O[C@@H](CN[C@H]1CC[C@H](c3cn(C)c4ccc(F)cc34)C1)CO2` (mixture of isomers) [Example 4, N-[(trans)-3-(5-fluoro-1-methyl-1H-indol-3-yl)cyclopentyl]-N-{[(2S)-8-methoxy-2,3-dihydro-1,4-benzodioxin-2-yl]methyl}amine], in assay [1], the Ki is 3.86 nM. In assay [2], the 50% inhibitory concentration (IC50) came out at 53 nM and the 5-HT1A Function (Imax) was 79%. Further, the Ki in assay [3] was found to be 3.02 nM.

`CCOc1cccc2c1O[C@@H](CN[C@H]1CC[C@@H](c3c[nH]c4ccc(F)cc34)C1)CO2` (mixture of isomers) [Example 5, N-{[(2S)-8-ethoxy-2,3-dihydro-1,4-benzodioxin-2-yl]methyl}-N-[(cis)-3-(5-fluoro-1H-indol-3-yl)cyclopentyl]amine]: the Ki in assay [1] was 0.6 nM; in assay [3], 8.09 nM. Further, in assay [2], the IC50 was 105 nM. For the same molecule, in assay [2], the 5-HT1A Function (Imax) amounted to 48%.

Regarding `CCOc1cccc2c1O[C@@H](CN[C@H]1CC[C@H](c3c[nH]c4ccc(F)cc34)C1)CO2` (mixture of isomers) [Example 6, N-{[(2S)-8-ethoxy-2,3-dihydro-1,4-benzodioxin-2-yl]methyl}-N-[(trans)-3-(5-fluoro-1H-indol-3-yl)cyclopentyl]amine], the Ki in assay [1] came out at 0.43 nM. In assay [2], the IC50 turned out to be 359 nM and the 5-HT1A Function (Imax) came to 25%. The Ki in assay [3] is 25.2 nM.

With `COc1cccc2c1O[C@@H](CN[C@@H]1CC[C@H](c3c[nH]c4ccc(F)cc34)C1)CO2` (single isomer, unassigned) [Example 1-Isomer A, N-[(1R*,3S*)-3-(5-fluoro-1H-indol-3-yl)cyclopentyl]-N-{[(2S)-8-methoxy-2,3-dihydro-1,4-benzodioxin-2-yl]methyl}amine], the values for the Ki in assay [1] and in assay [3] were 1.28 nM and 7.52 nM, respectively. Moreover, the IC50 in assay [2] amounted to 30 nM. Further, the 5-HT1A Function (Imax) in assay [2] was 78%.

For `COc1cccc2c1O[C@@H](CN[C@H]1CC[C@@H](c3c[nH]c4ccc(F)cc34)C1)CO2` (single isomer, unassigned) [Example 1-Isomer B, N-[(1S*,3R*)-3-(5-fluoro-1H-indol-3-yl)cyclopentyl]-N-{[(2S)-8-methoxy-2,3-dihydro-1,4-benzodioxin-2-yl]methyl}amine], the Ki in assay [1] was found to be 1.92 nM. For the same molecule, in assay [2], the IC50 amounted to 22 nM and the 5-HT1A Function (Imax) turned out to be 100%. For the same molecule, the Ki in assay [3] is 3.61 nM.

For `COc1cccc2c1O[C@@H](CN[C@H]1CC[C@H](c3c[nH]c4ccc(F)cc34)C1)CO2` (single isomer, unassigned) [Example 2-Isomer A, N-[(1S*,3S*)-3-(5-fluoro-1H-indol-3-yl)cyclopentyl]-N-{[(2S)-8-methoxy-2,3-dihydro-1,4-benzodioxin-2-yl]methyl}amine], the results for the Ki in assay [1] and in assay [3] were 1 nM and 23.6 nM, respectively. The IC50 in assay [2] came to 375 nM. Further, the 5-HT1A Function (Imax) in assay [2] amounted to 84%.

Take `COc1cccc2c1O[C@@H](CN[C@@H]1CC[C@@H](c3c[nH]c4ccc(F)cc34)C1)CO2` (single isomer, unassigned) [Example 2-Isomer B, N-[(1R*,3R*)-3-(5-fluoro-1H-indol-3-yl)cyclopentyl]-N-{[(2S)-8-methoxy-2,3-dihydro-1,4-benzodioxin-2-yl]methyl}amine]: the figures for the Ki in assay [1] and in assay [3] were 0.8 nM and 2.05 nM, respectively. Besides, the IC50 in assay [2] was 76 nM. The 5-HT1A Function (Imax) in assay [2] was found to be 32%.

Take `COc1cccc2c1O[C@@H](CN[C@@H]1CC[C@H](c3c[nH]c4ccc(C#N)cc34)C1)CO2` (single isomer, unassigned) [Example 7-Isomer A]: the Ki is 0.64 nM in assay [1] and 5.29 nM in assay [3].

On to `COc1cccc2c1O[C@@H](CN[C@H]1CC[C@H](c3c[nH]c4ccc(C#N)cc34)C1)CO2` (single isomer, unassigned) [Example 7-Isomer B], for which the Ki in assay [1] is 0.57 nM. Further, in assay [2], the IC50 worked out at 24 nM and the 5-HT1A Function (Imax) worked out at 56%. Also, the Ki in assay [3] came out at 9.62 nM.

As for `COc1cccc2c1O[C@@H](CN[C@@H]1CC[C@H](c3cn(C)c4ccc(C#N)cc34)C1)CO2` (single isomer, unassigned) [Example 8-Isomer A], the Ki turned out to be 6 nM in assay [1] and 12.6 nM in assay [3]. A half-maximal effect in assay [4] (given as EC50) (EC50) was put at 23 nM. Besides, the Emax in assay [4] (given as Emax) was 64%.

For `COc1cccc2c1O[C@@H](CN[C@H]1CC[C@H](c3cn(C)c4ccc(C#N)cc34)C1)CO2` (single isomer, unassigned) [Example 8-Isomer B], the Ki in assay [1] was 8 nM; in assay [3] it was 25.5 nM.

`COc1cccc2c1OC(CNC1CCC(c3c[nH]c4ccc(F)cc34)C1)CO2` [Example 1, N-[(cis)-3-(5-fluoro-1H-indol-3-yl)cyclopentyl]-N-{([(2S)-8-methoxy-2,3-dihydro-1,4-benzodioxin-2-yl]methyl}amine]: the Ki in assay [1] came out at 1.07 nM; in assay [3], 5.82 nM. In addition, the IC50 in assay [2] was found to be 55 nM. For the same molecule, in assay [2], the 5-HT1A Function (Imax) was found to be 100%.

As a reminder, the Ki is a dissociation constant, usually derived from enzyme kinetics or from competition with a known ligand. What is called IC50 is the point on the concentration scale where inhibition reaches its midpoint. Broadly, the EC50 is the concentration that produces a half-maximal response. The low end stands for greater potency, the high end for weaker potency. As usually defined, the Emax is the size of the effect at its maximum, as opposed to the concentration needed.
